Measured values taken from US8809373B2, “Pyridine non-classical cannabinoid compounds and related methods of use” (priority 2008, dated 2014).

How the values were obtained:
[1] = tested on: glioblastoma brain cancer cell line DBTRG05MG; experiment: Cytotoxicity assay (CCK8 viability), DBTRG05MG; type: cell-based; settings: Homo sapiens, DBTRG-05MG, DBTRG05MG cells, 18 hours drug incubation, 1% FBS media
Experimental: (§1) Cytoxocity assay: Cells were seeded on a 96 well polystyrene plate in full serum media at a density of 75,000 cells per milliliter, 100 μL per well. Plates were incubated at 37° C. and 5% CO2 for 24 hours to allow cell attachment. Drug solutions were prepared in DMSO at 100× concentration and mixed 1:100 in 1% FBS media to yield the desired concentration. Drug-media mixtures were vortexed immediately prior to administration to cells. Full serum media was removed and replaced with drug-media mixtures and incubated for 18 hours. 10 μL of Cell Counting Kit 8 (CCK8, Dojindo# CK04-11) was added to each well to colormetrically assess viability. After 2-4 hours of incubation with the CCK8 dye, absorbance was read at 450 nm by a BioTek Synergy 2 plate reader.
(§2) The cytotoxicity of selected compounds against the glioblastoma brain cancer cell line LN-229 is depicted in Table 1.

[2] = tested on: glioblastoma brain cancer cell line LN-229; experiment: Cytotoxicity assay (CCK8 viability), LN-229; type: cell-based; settings: Homo sapiens, LN-229 cells, 18 hours drug incubation, 1% FBS media
Experimental: as §1, §2

Row | Structure (SMILES) | EC50 [1] | EC50 [2]
1 | CC(C)(c1cc(O)c(-c2cc(Cl)cc(Cl)c2)c(O)n1)C1CCCCC1 [Compound 8b, 6-(2-Cyclohexylpropan-2-yl)-3-(3,5-dichlorophenyl)pyridine-2,4-diol] | 9.8 µM | 5.9 µM
2 | CC(C)(c1ccccc1)c1cc(O)c(-c2cc(Cl)cc(Cl)c2)c(O)n1 [Compound 8c, 3-(3,5-Dichlorophenyl)-6-(2-phenylpropan-2-yl)pyridine-2,4-diol] | 33.6 µM | 29.2 µM
3 | CCCCCCC(C)(C)c1cc(O)c(-c2cc(Cl)cc(Cl)c2)c(O)n1 [Compound 8e, 3-(3,5-dichlorophenyl)-6-(2-methyloctan-2-yl)pyridine-2,4-diol] | 4.1 µM | 1.6 µM
4 | Cc1cccc(-c2c(O)cc(C(C)(C)C3CCCCC3)nc2O)c1 [Compound 8f, 6-(2-Cyclohexylpropan-2-yl)-3-m-tolylpyridine-2,4-diol] |  | 71.1 µM
5 | CCCCCCC(C)(C)c1nc(O)c(-c2cccc(C)c2)c(O)n1 [Compound 8h, 2-(2-Methyloctan-2-yl)-5-m-tolylpyrimidine-4,6-diol] | 29.2 µM | 24.6 µM
6 | CCCCCCC(C)(C)c1cc(O)c(-c2ccccc2)c(O)n1 [Compound 8j, 6-(2-Methyloctan-2-yl)-3-phenylpyridine-2,4-diol] | 55.7 µM | 52.6 µM
7 | CCCCCCC(C)(C)c1cc(O)c(-c2cccc(OC)c2)c(O)n1 [Compound 8m, 3-(3-Methoxyphenyl)-6-(2-methyloctan-2-yl)pyridine-2,4-diol] | 56 µM | 41.7 µM
8 | CCCCCCC(C)(C)c1cc(O)c(Cc2ccccc2)c(O)n1 [Compound 8n, 3-Benzyl-6-(2-methyloctan-2-yl)pyridine-2,4-diol] | 25.2 µM | 13.1 µM
